According to PubChem BioAssay AID1918957 (Molecular Pharmacology Branch, DTP, NCI, 2023):

System: NCI-H1876 complex spheroid viability
Assay: Anticancer human tumor NCI-H1876 cell line growth inhibition [LSD1];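 note: spheroids exposed to compounds for one week before readout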;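 for viability, T/C: 100% = DMSO vehicle-treated spheroids so lower means fewer viable cells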
Conditions: for IC50: curve of first compound; for viability, T/C: stronger effect = lower value
How it was run: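 Multicellular complex spheroids of tumor cells with human endothelial cells (HUVEC) and mesenchymal stem cells; the LSD1 inhibitor iadademstat was combined with standard-of-care or investigational agents. Top concentration at or near clinical Cmax, half-log dilutions; final DMSO ≤0.25%.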

[1] = second compound 0.1 µM, first compound 0.000316 µM
[2] = second compound 0.1 µM, first compound 0.001 µM
[3] = second compound 0.1 µM, first compound 0.00316 µM
[4] = second compound 0.1 µM, first compound 0.01 µM
[5] = second compound 0.1 µM, first compound 0.0316 µM
[6] = second compound 0.1 µM, first compound 0.1 µM
[7] = second compound 0.316 µM, first compound 0.000316 µM
[8] = second compound 0.316 µM, first compound 0.001 µM
[9] = second compound 0.316 µM, first compound 0.00316 µM
[10] = second compound 0.316 µM, first compound 0.01 µM
[11] = second compound 0.316 µM, first compound 0.0316 µM
[12] = second compound 0.316 µM, first compound 0.1 µM
[13] = second compound 1 µM, first compound 0.000316 µM
[14] = second compound 1 µM, first compound 0.001 µM
[15] = second compound 1 µM, first compound 0.00316 µM
[16] = second compound 1 µM, first compound 0.01 µM
[17] = second compound 1 µM, first compound 0.0316 µM
[18] = second compound 1 µM, first compound 0.1 µM
[19] = second compound 3.16 µM, first compound 0.000316 µM
[20] = second compound 3.16 µM, first compound 0.001 µM
[21] = second compound 3.16 µM, first compound 0.00316 µM
[22] = second compound 3.16 µM, first compound 0.01 µM
[23] = second compound 3.16 µM, first compound 0.0316 µM
[24] = second compound 3.16 µM, first compound 0.1 µM
[25] = second compound 10 µM, first compound 0.000316 µM
[26] = second compound 10 µM, first compound 0.001 µM
[27] = second compound 10 µM, first compound 0.00316 µM
[28] = second compound 10 µM, first compound 0.01 µM
[29] = second compound 10 µM, first compound 0.0316 µM
[30] = second compound 10 µM, first compound 0.1 µM

SMILES | IC50 (second compound 0.1 µM) [nM] | IC50 (second compound 0.316 µM) [nM] | IC50 (second compound 1 µM) [nM] | IC50 (second compound 3.16 µM) [nM] | IC50 (second compound 10 µM) [nM] | viability, T/C [3] [%] | viability, T/C [4] [%] | viability, T/C [5] [%] | viability, T/C [6] [%] | viability, T/C [9] [%] | viability, T/C [10] [%] | viability, T/C [11] [%] | viability, T/C [12] [%] | viability, T/C [15] [%] | viability, T/C [16] [%] | viability, T/C [17] [%] | viability, T/C [18] [%] | viability, T/C [21] [%] | viability, T/C [22] [%] | viability, T/C [23] [%] | also measured
CC(C)CC(NC(=O)C(Cc1ccccc1)NC(=O)c1cnccn1)B(O)O (stereo not given) + NC1CC1c1ccc(-c2cccc(O)c2)cc1 | 0.406 | 0.444 | 0.446 | 0.374 | < 0.316 | 0.19 | 0.14 | 0.14 | 0.24 | 0.17 | 0.12 | 0.15 | 0.21 | 0.22 | 0.31 | 0.13 | 0.22 | 0.22 | 0.16 | 0.14 | viability, T/C [1]: 63.8%; viability, T/C [2]: 0.34%; viability, T/C [7]: 70.6%; viability, T/C [8]: 0.44%; viability, T/C [13]: 71.2%; viability, T/C [14]: 0.42%; viability, T/C [19]: 58.4%; viability, T/C [20]: 0.35%; viability, T/C [24]: 0.24%; viability, T/C [25]: 41.6%; viability, T/C [26]: 0.43%; viability, T/C [27]: 0.48%; viability, T/C [28]: 0.28%; viability, T/C [29]: 0.26%; viability, T/C [30]: 0.34%
CC(C)CC(NC(=O)CNC(=O)c1cc(Cl)ccc1Cl)B1OC(=O)CC(CC(=O)O)(C(=O)O)O1 (stereo not given) + NC1CC1c1ccc(-c2cccc(O)c2)cc1 | 7.7 | 7.44 | 7.44 | 7.35 | 6.63 | 105 | 34.6 | 1.61 | 0.3 | 97.3 | 33.7 | 1.47 | 0.31 | 102 | 32.1 | 1.86 | 0.31 | 98.4 | 32.5 | 1.08 | viability, T/C [1]: 98.9%; viability, T/C [2]: 103%; viability, T/C [7]: 108%; viability, T/C [8]: 101%; viability, T/C [13]: 105%; viability, T/C [14]: 103%; viability, T/C [19]: 110%; viability, T/C [20]: 106%; viability, T/C [24]: 0.3%; viability, T/C [25]: 103%; viability, T/C [26]: 102%; viability, T/C [27]: 87%; viability, T/C [28]: 29.6%; viability, T/C [29]: 0.75%; viability, T/C [30]: 0.39%
COc1cc(Nc2ncc3c(n2)-c2ccc(Cl)cc2C(c2c(F)cccc2OC)=NC3)ccc1C(=O)O + NC1CC1c1ccc(-c2cccc(O)c2)cc1 | 28.5 | 37 | 35.9 | 30.1 | 41.2 | 69.2 | 61.6 | 48.2 | 35.7 | 64.9 | 64.5 | 50.2 | 37.5 | 78.4 | 62.1 | 51.5 | 40.5 | 65.9 | 58.4 | 49.8 | viability, T/C (second compound 0.1 µM, first compound 0.316 µM): 30.2%; viability, T/C (second compound 0.1 µM, first compound 1 µM): 16.3%; viability, T/C (second compound 0.316 µM, first compound 0.316 µM): 26%; viability, T/C (second compound 0.316 µM, first compound 1 µM): 15.8%; viability, T/C (second compound 1 µM, first compound 0.316 µM): 27.1%; viability, T/C (second compound 1 µM, first compound 1 µM): 16.2%; viability, T/C [24]: 38.5%; viability, T/C (second compound 3.16 µM, first compound 0.316 µM): 27.9%; viability, T/C (second compound 3.16 µM, first compound 1 µM): 15%; viability, T/C [27]: 64.3%; viability, T/C [28]: 62.1%; viability, T/C [29]: 53.1%; viability, T/C [30]: 38.7%; viability, T/C (second compound 10 µM, first compound 0.316 µM): 31.1%; viability, T/C (second compound 10 µM, first compound 1 µM): 17.2%
